Measurements published in patent publication US10696639B2, “Heterocyclic compounds as HIV protease inhibitors” (Merck Sharp & Dohme Corp., priority 2016, dated 2020).

target: T1, wild-type HIV-1 protease (Human immunodeficiency virus type 1 group M subtype B, UniProt P04585); assay: Assay for Inhibition of Microbial Expressed HIV Protease; format: biochemical; details: E. coli expressed wild-type HIV-1 protease, peptide substrate cleavage, LC-MS readout; mean of at least two independent experiments; read-out: HIV Pr Enzyme HIV1 PR IC50
T1 construct: Escherichia coli expressed wild-type HIV-1 protease protein; made in house; host or cells: Escherichia coli
Description: Assay for Inhibition of Microbial Expressed HIV Protease
Inhibition of Escherichia coli expressed wild-type HIV-1 protease protein was carried out with a peptide substrate [Val-Ser-Gln-Asn-(βnaphtyl)Ala-Pro-Ile-Val]. The inhibitor compound was preincubated with HIV-1 protease enzyme in assay buffer (50 mM sodium acetate, pH 5.5, 100 mM NaCl, and 0.1% BSA) for 30 minutes at room temperature. Peptide substrate was added to […] in a total volume of 20 μL containing 20 pM HIV-1 protease (final) after which the reaction was incubated for 1 hour at 30° C. The reaction was quenched by the addition of formic acid and HIV protease inhibitor indinavir to 0.012% and 150 nM final concentrations, respectively. Product formation was determined after separation of product and substrate on a ZORBAX Eclipse XDB-C18 column (Aligent Technologies, Santa Clara, Calif., USA) connected to an API 4000™ mass spectrometer (AB Sciex, Pte. Ltd., Concord Ontario, Canada) with multiple reaction monitoring (transitions were 644.5/428.9 and 615.4/422.2 (M1/M3) for product and indinavir respectively). The extent of inhibition of the reaction was determined from the peak area of the products. Analysis of the products, independently synthesized, provided quantitation standards and confirmation of the product composition.

SMILES | IC50
COC(=O)N[C@@H](Cc1ccccc1)C(=O)NCCC[C@@H](CC1CC1)N1C(=N)N[C@](CC(C)C)(c2ccccc2)C1=O [Example 53, N-{(4S)-5-cyclopropyl-4-[(4R)-2-imino-4-(2-methylpropyl)-5-oxo-4-phenylimidazolidin-1-yl]pentyl}-N-alpha-(methoxycarbonyl)-L-phenylalaninamide] | 249 nM
COC(=O)N[C@@H](Cc1ccccc1)C(=O)NCCC[C@@H](C)N1C(=N)N[C@](CC(C)C)(c2ccccc2)C1=O [Example 54, N-{(4R)-4-[(4R)-2-imino-4-(2-methylpropyl)-5-oxo-4-phenylimidazolidin-1-yl]pentyl}-N-alpha-(methoxycarbonyl)-L-phenylalaninamide] | 190 nM
CC[C@H](CCCNC(=O)[C@H](Cc1ccccc1)NC(=O)OC)N1C(=N)N[C@](CC(C)C)(c2ccccc2)C1=O [Example 55, N-{(4R)-4-[(4R)-2-imino-4-(2-methylpropyl)-5-oxo-4-phenylimidazolidin-1-yl]hexyl}-N-alpha-(methoxycarbonyl)-L-phenylalaninamide] | 532 nM
COC(=O)N[C@@H](Cc1ccccc1)C(=O)NCCC[C@@H](CCC1CC1)N1C(=N)N[C@](CC(C)C)(c2ccccc2)C1=O [Example 56, N-{(4R)-6-cyclopropyl-4-[(4R)-2-imino-4-(2-methylpropyl)-5-oxo-4-phenylimidazolidin-1-yl]hexyl}-N-alpha-(methoxycarbonyl)-L-phenylalaninamide] | 100 nM
